# Results as given in US6479033B1, “Antitumor cystostatic and contrast agent” (priority 1994, dated 2002).
# Tested on: Tumor
# Test: Tumor growth and contrasting agent in the liver after treatment (carboplatin, Spherex, gelatin foam)
# Format: in vivo
# Conditions: carboplatin encapsulated in SUV-PEG
# Description: The following Table summarizes results obtained using carboplatin as the cytostatic drug encapsulated in SUV-PEG and Spherex gelatin foam as the starch particle.
structure (smiles),measurement,value
"N.N.O=C([O-])C1(C(=O)[O-])CCC1.[Pt+2] [Carboplatin, carboplatin]",Tumor growth by a factor of (7 days after treatment),1.45 ± 0.96
